Molecules are shown by their SMILES. Numbered stars: 1 amine (or outer) side, 2 acyl side, 3 side chain; on linkers, the order of the positions; unused ones are H or OH. Bridge positions count the residues as written; N and C are the ends. Side chains are listed from the residue outwards. Peptide text beside a SMILES is read from it. * marks the point of attachment. γGlu = O=C(O)[C@H](CCC(=O)[*:2])N[*:1]; Palmitoyl = CCCCCCCCCCCCCCCC(=O)*

The assay concerns mice. In words: Forced swim test (FST). Type of assay: in vivo, mouse. The conditions noted are these: qualitative result; 0.03 mg/kg dosing, as in Example 8. The text has this: The forced swim test (FST) is a commonly used paradigm to evaluate antidepressant activity of drugs. The FST is based on measurement of the animal's floating time in a tank filled with water. When rats or mice are forced to swim in a deep cylinder with tepid water they become nearly immobile and cease trying to escape. Without wishing to be bound by any theory, it is believe that this characteristic immobile posture reflects a depressive-like state which is readily influenced by a wide variety of antidepressants. See, e.g., Hedou et al., 2001, Pharmacol, Biochem. Behay. 70:65-76; Chaki et al., 2003, J. Pharmacol. Exp. Ther. 304:818-826; Porsolt et al., 1977, Nature 266:730-732. Antidepressants decrease the immobility time in the FST. Vehicle or test compound can be delivered continuously for two weeks to mice by subcutaneously implanted osmotic pumps prior to the FST. Indeed, any route of administration (e.g., intraperitoneal, subcutaneous, oral and the like) is available. Mice can be placed in the water tank for assessment of climbing, swimming, and immobility over a defined trial session, typically 6 minutes. Test session parameters for mice and rats are typically different, as known in the art.
The forced swim test (FST) is a commonly used paradigm to evaluate antidepressant activity of drugs. […] Specifically, vehicle or test compound was delivered continuously for two weeks to mice by subcutaneously implanted osmotic pumps prior to the FST assay, by methods well known in the art. On day one, the patients were introduced into the tank for a 15 minute pre-swim session. On day two, the patients were placed back into the water tank for assessment of climbing, swimming, and immobility over a 6 minute trial session. The rate of compound infusion was 0.03 mg/kg/day.
Consider `CCCCCCCCCCCCCCCC(=O)N[C@@H](CCC(=O)NCCCC[C@H](NC(=O)[C@H](Cc1c[nH]cn1)NC(=O)[C@H](CC(C)C)NC(=O)[C@H](CCC(=O)O)NC(=O)[C@H](CCC(N)=O)NC(=O)[C@H](C)NC(=O)[C@H](CC(C)C)NC(=O)[C@H](CCCNC(=N)N)NC(=O)[C@H](CCC(N)=O)NC(=O)[C@H](CC(C)C)NC(=O)[C@H](C)NC(=O)[C@@H]1CSSC[C@H](NC(=O)[C@@H](N)CCCCN)C(=O)N[C@@H](CC(N)=O)C(=O)N[C@@H]([C@@H](C)O)C(=O)N[C@@H](C)C(=O)N[C@@H]([C@@H](C)O)C(=O)N1)C(=O)N[C@@H](CC(C)C)C(=O)N[C@@H](CCC(N)=O)C(=O)N[C@H](C(=O)N[C@@H](Cc1ccc(O)cc1)C(=O)N1CCC[C@H]1C(=O)N[C@@H](CCCNC(=N)N)C(=O)N[C@H](C(=O)N[C@@H](CC(N)=O)C(=O)N[C@H](C(=O)NCC(=O)N[C@@H](CO)C(=O)N[C@@H](CC(N)=O)C(=O)N[C@H](C(=O)N[C@@H](Cc1ccc(O)cc1)C(N)=O)[C@@H](C)O)C(C)C)[C@@H](C)O)[C@@H](C)O)C(=O)O` [Cmpd 186, [K^18ε-(γ-Glu(Nα-C16-Chain))]-Cmpd 17] (H-KCNTATCALQRLAQELHK([γGlu-Palmitoyl])LQTYPRTNVGSNTY-NH2; disulfide 2-7 (inferred); N-terminus assumed), for which the “FST Assay, 0.03 mg/kg” value is “Inactive”.
Turning to `CCCCCCCCCCCCCCCC(=O)N[C@@H](CCC(=O)NCCCC[C@H](NC(=O)[C@H](CCC(N)=O)NC(=O)[C@H](CC(C)C)NC(=O)[C@H](CCCNC(=N)N)NC(=O)[C@H](Cc1c[nH]cn1)NC(=O)[C@H](CC(C)C)NC(=O)[C@H](CCC(=O)O)NC(=O)[C@H](CCC(N)=O)NC(=O)[C@H](C)NC(=O)[C@H](CC(C)C)NC(=O)[C@H](CCCNC(=N)N)NC(=O)[C@H](CCC(N)=O)NC(=O)[C@H](CC(C)C)NC(=O)[C@H](C)NC(=O)[C@@H]1CSSC[C@H](NC(=O)[C@@H](N)CCCCN)C(=O)N[C@@H](CC(N)=O)C(=O)N[C@@H]([C@@H](C)O)C(=O)N[C@@H](C)C(=O)N[C@@H]([C@@H](C)O)C(=O)N1)C(=O)N[C@@H](Cc1ccc(O)cc1)C(=O)N1CCC[C@H]1C(=O)N[C@@H](CCCNC(=N)N)C(=O)N[C@H](C(=O)N[C@@H](CC(N)=O)C(=O)N[C@H](C(=O)NCC(=O)N[C@@H](CO)C(=O)N[C@@H](CC(N)=O)C(=O)N[C@H](C(=O)N[C@@H](Cc1ccc(O)cc1)C(N)=O)[C@@H](C)O)C(C)C)[C@@H](C)O)C(=O)O` [Cmpd 187, [K^21ε-(γ-Glu(Nα-C16-Chain))]-Cmpd 17] (H-KCNTATCALQRLAQELHRLQK([γGlu-Palmitoyl])YPRTNVGSNTY-NH2; disulfide 2-7 (inferred); N-terminus assumed), the “FST Assay, 0.03 mg/kg” value is listed as “Inactive”.
As for `CCCCCCCCCCCCCCCC(=O)N[C@@H](CCC(=O)NCCCC[C@H](NC(=O)[C@@H]1CCCN1C(=O)[C@H](Cc1ccc(O)cc1)NC(=O)[C@@H](NC(=O)[C@H](CCC(N)=O)NC(=O)[C@H](CC(C)C)NC(=O)[C@H](CCCNC(=N)N)NC(=O)[C@H](Cc1c[nH]cn1)NC(=O)[C@H](CC(C)C)NC(=O)[C@H](CCC(=O)O)NC(=O)[C@H](CCC(N)=O)NC(=O)[C@H](C)NC(=O)[C@H](CC(C)C)NC(=O)[C@H](CCCNC(=N)N)NC(=O)[C@H](CCC(N)=O)NC(=O)[C@H](CC(C)C)NC(=O)[C@H](C)NC(=O)[C@@H]1CSSC[C@H](NC(=O)[C@@H](N)CCCCN)C(=O)N[C@@H](CC(N)=O)C(=O)N[C@@H]([C@@H](C)O)C(=O)N[C@@H](C)C(=O)N[C@@H]([C@@H](C)O)C(=O)N1)[C@@H](C)O)C(=O)N[C@H](C(=O)N[C@@H](CC(N)=O)C(=O)N[C@H](C(=O)NCC(=O)N[C@@H](CO)C(=O)N[C@@H](CC(N)=O)C(=O)N[C@H](C(=O)N[C@@H](Cc1ccc(O)cc1)C(N)=O)[C@@H](C)O)C(C)C)[C@@H](C)O)C(=O)O` [Cmpd 188, [K^24ε-(γ-Glu(Nα-C16-Chain))]-Cmpd 17] (H-KCNTATCALQRLAQELHRLQTYPK([γGlu-Palmitoyl])TNVGSNTY-NH2; disulfide 2-7 (inferred); N-terminus assumed), the “FST Assay, 0.03 mg/kg” value was “Inactive”.
Then `CCCCCCCCCCCCCCCC(=O)N[C@@H](CCC(=O)NCCCC[C@H](N)C(=O)N[C@H]1CSSC[C@@H](C(=O)N[C@@H](C)C(=O)N[C@@H](CC(C)C)C(=O)N[C@@H](CCC(N)=O)C(=O)N[C@@H](CCCNC(=N)N)C(=O)N[C@@H](CC(C)C)C(=O)N[C@@H](C)C(=O)N[C@@H](CCC(N)=O)C(=O)N[C@@H](CCC(=O)O)C(=O)N[C@@H](CC(C)C)C(=O)N[C@@H](Cc2c[nH]cn2)C(=O)N[C@@H](CCCNC(=N)N)C(=O)N[C@@H](CC(C)C)C(=O)N[C@@H](CCC(N)=O)C(=O)N[C@H](C(=O)N[C@@H](Cc2ccc(O)cc2)C(=O)N2CCC[C@H]2C(=O)N[C@@H](CCCNC(=N)N)C(=O)N[C@H](C(=O)N[C@@H](CC(N)=O)C(=O)N[C@H](C(=O)NCC(=O)N[C@@H](CO)C(=O)N[C@@H](CC(N)=O)C(=O)N[C@H](C(=O)N[C@@H](Cc2ccc(O)cc2)C(N)=O)[C@@H](C)O)C(C)C)[C@@H](C)O)[C@@H](C)O)NC(=O)[C@H]([C@@H](C)O)NC(=O)[C@H](C)NC(=O)[C@H]([C@@H](C)O)NC(=O)[C@H](CC(N)=O)NC1=O)C(=O)O` [Cmpd 192, [K^1ε-(γ-Glu(Nα-C16-Chain))]-Cmpd 17] (H-K([γGlu-Palmitoyl])CNTATCALQRLAQELHRLQTYPRTNVGSNTY-NH2; disulfide 2-7 (inferred); N-terminus assumed), with “Active”.
Consider `CCCCCCCCCCCCCCCC(=O)N[C@@H](CCC(=O)NCCCC[C@H](NC(=O)[C@H](CCC(N)=O)NC(=O)[C@H](CC(C)C)NC(=O)[C@H](C)NC(=O)[C@@H]1CSSC[C@H](NC(=O)[C@@H](N)CCCCN)C(=O)N[C@@H](CC(N)=O)C(=O)N[C@@H]([C@@H](C)O)C(=O)N[C@@H](C)C(=O)N[C@@H]([C@@H](C)O)C(=O)N1)C(=O)N[C@@H](CC(C)C)C(=O)N[C@@H](C)C(=O)N[C@@H](CCC(N)=O)C(=O)N[C@@H](CCC(=O)O)C(=O)N[C@@H](CC(C)C)C(=O)N[C@@H](Cc1c[nH]cn1)C(=O)N[C@@H](CCCNC(=N)N)C(=O)N[C@@H](CC(C)C)C(=O)N[C@@H](CCC(N)=O)C(=O)N[C@H](C(=O)N[C@@H](Cc1ccc(O)cc1)C(=O)N1CCC[C@H]1C(=O)N[C@@H](CCCNC(=N)N)C(=O)N[C@H](C(=O)N[C@@H](CC(N)=O)C(=O)N[C@H](C(=O)NCC(=O)N[C@@H](CO)C(=O)N[C@@H](CC(N)=O)C(=O)N[C@H](C(=O)N[C@@H](Cc1ccc(O)cc1)C(N)=O)[C@@H](C)O)C(C)C)[C@@H](C)O)[C@@H](C)O)C(=O)O` [Cmpd 193, [K^11ε(γ-Glu(Nα-C16-Chain))]-Cmpd 17] (H-KCNTATCALQK([γGlu-Palmitoyl])LAQELHRLQTYPRTNVGSNTY-NH2; disulfide 2-7 (inferred); N-terminus assumed), for which the “FST Assay, 0.03 mg/kg” value is recorded as “Inactive”.
The result for `CCCCCCCCCCCCCCCC(=O)N[C@@H](CCC(=O)NCCCC[C@H](N)C(=O)N[C@@H](CCCCN)C(=O)N[C@H]1CSSC[C@@H](C(=O)N[C@@H](C)C(=O)N[C@@H](CC(C)C)C(=O)N[C@@H](CCC(N)=O)C(=O)N[C@@H](CCCNC(=N)N)C(=O)N[C@@H](CC(C)C)C(=O)N[C@@H](C)C(=O)N[C@@H](CCC(N)=O)C(=O)N[C@@H](CCC(=O)O)C(=O)N[C@@H](CC(C)C)C(=O)N[C@@H](Cc2c[nH]cn2)C(=O)N[C@@H](CCCNC(=N)N)C(=O)N[C@@H](CC(C)C)C(=O)N[C@@H](CCC(N)=O)C(=O)N[C@H](C(=O)N[C@@H](Cc2ccc(O)cc2)C(=O)N2CCC[C@H]2C(=O)N[C@@H](CCCNC(=N)N)C(=O)N[C@H](C(=O)N[C@@H](CC(N)=O)C(=O)N[C@H](C(=O)NCC(=O)N[C@@H](CO)C(=O)N[C@@H](CC(N)=O)C(=O)N[C@H](C(=O)N[C@@H](Cc2ccc(O)cc2)C(N)=O)[C@@H](C)O)C(C)C)[C@@H](C)O)[C@@H](C)O)NC(=O)[C@H]([C@@H](C)O)NC(=O)[C@H](C)NC(=O)[C@H]([C@@H](C)O)NC(=O)[C@H](CC(N)=O)NC1=O)C(=O)O` [Cmpd 195, Kε-(γ-Glu(Nα-C16-Chain))-Cmpd 17] (H-K([γGlu-Palmitoyl])KCNTATCALQRLAQELHRLQTYPRTNVGSNTY-NH2; disulfide 3-8; N-terminus assumed) reads “Active”.

These data come from US20140249076A1, “AMYLIN-CALCITONIN CHIMERIC PEPTIDES CONJUGATED TO DURATION ENHANCING MOIETIES” (AMYLIN PHARMACEUTICALS, LLC, priority 2011, published 2014).
